IC50 data for ten compounds are collected here from patent US11034661B2, “Substituted N′-hydroxycarbamimidoyl-1,2,5-oxadiazole compounds as indoleamine 2,3-dioxygenase IDO inhibitors” (Merck Sharp & Dohme Corp., priority 2017, dated 2021).

In one test the target is HIS-tagged IDO1 protein (Homo sapiens (Human), UniProt P14902). The test is described as follows: IDO1 Enzyme Assay. Conditions: recombinant IDO1 40 nM, tryptophan substrate, fluorescence readout. The format is biochemical. On the procedure: Biological Assays IDO1 Enzyme Assay
HIS-tagged IDO1 protein, sequence (P14902 whole entry): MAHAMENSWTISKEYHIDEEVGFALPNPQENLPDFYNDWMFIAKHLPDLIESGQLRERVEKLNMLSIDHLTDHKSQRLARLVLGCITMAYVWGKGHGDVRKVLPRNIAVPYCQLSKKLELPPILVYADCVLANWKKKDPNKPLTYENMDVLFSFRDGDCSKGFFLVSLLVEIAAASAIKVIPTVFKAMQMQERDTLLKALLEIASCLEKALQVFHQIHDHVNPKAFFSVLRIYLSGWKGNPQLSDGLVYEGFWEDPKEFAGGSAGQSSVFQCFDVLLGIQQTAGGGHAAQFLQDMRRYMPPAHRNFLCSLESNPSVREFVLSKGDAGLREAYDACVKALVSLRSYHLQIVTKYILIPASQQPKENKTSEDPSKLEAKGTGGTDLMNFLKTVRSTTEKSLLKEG
Compounds to be tested were serially diluted in ten 3-fold steps in DMSO starting from 10 mM DMSO stocks. Compound dilutions or DMSO alone were then dispensed from the dilution plate into a Greiner black 384-well assay plate (catalog #781086) using an Echo 555 acoustic liquid handler (Labcyte).
HIS-tagged IDO1 protein was recombinantly expressed in Escherichia coli using ZYP5052 autoinduction media supplemented with 500 μM delta aminolevulinic acid for 48 hours at 16 degrees Celsius. IDO1 protein was purified using Ni^2+-affinity resin and size exclusion chromatography. Purified protein was then diluted in assay buffer (50 mM Tris pH 7.0, 1% glycerol, 20 μM methylene blue, 0.05% Tween-20, 20 mM sodium ascorbate, 100 units/mL catalase to obtain a final IDO1 concentration of 40 nM. IDO1 solution […] or buffer alone […] was dispensed to wells of the assay plate using a BioRAPTR liquid dispenser (Beckman Coulter). Assay plates containing compound and IDO1 enzyme were incubated at room temperature for 30 minutes. Afterwards, 10 μL of 400 μM tryptophan in assay buffer were added to each well of the assay plate using a BioRAPTR liquid dispenser. Plates were incubated at room temperature for 60 minutes and reactions were quenched by addition of 10 μL of 0.5 M methyl isonipecotate in dimethyl sulfoxide. Plates were sealed and incubated at 37 degrees Celsius for 4 hours or 50 degrees Celsius for 2 hours. The plates are allowed to cool and then centrifuged for 1 minute at 1000×g. The resulting fluorescence was measured in an Envision plate reader (Perkin Elmer) with a 400/25 nm excitation filter and an 510/20 nm emission filter.
Potencies were calculated by linear least squares fit to the four parameter logistic IC50 equation.

The target of test [1] is IDO1 in Hela cells stimulated with IFNγ (Homo sapiens (Human), UniProt P14902). The test is described as follows: IDO1 Cellular Assay in Hela Cells Stimulated with IFNγ. Conditions: IFNγ 100 ng/mL, about 48 hours, fluorescence readout, read-out: IDO1 HELA Cell Assay, IC50. The format is cell-based. The method, then: IDO1 Cellular Assay in Hela Cells Stimulated with IFNγ
IDO1 in Hela cells stimulated with IFNγ, sequence (P14902 whole entry): as above
Hela cells were cultured in complete Hela culture medium (90% EMEM, 10% heat-inactivated fetal bovine serum) and expanded to about 1×10^9 cells. The cells were then collected and frozen down at 10×10^6 cells/vial in 1 mL frozen medium (90% complete Hela culture medium, 10% DMSO)
Compounds to be tested were serially diluted in ten 3-fold steps in DMSO starting from 10 mM DMSO stocks in Echo low volume plate(s). Compound dilutions or DMSO alone were then dispensed from the dilution plate(s) into Greiner black 384-well assay plate(s) (catalog #781086, 50 nL/well) using an Echo 550 acoustic liquid handler (Labcyte).
Frozen Hela cells were thawed and transferred into Hela assay medium (99% complete Hela culture medium, 1% Pen/Strep) with 20 mL medium/vial of cells. The cells were spun down at 250 g in a table top centrifuge for 5 min and suspended in same volume of Hela assay medium. The cells were then counted and adjusted to a density of 2×10^5 cells/ml in Hela assay medium. Sterile L-tryptophan were added to the cells with final concentration of 300 uM L-tryptophan. A small aliquot (2 mL/plate) of Hela cells were set aside and were not treated with IFNγ, to serve as the Max-E control. The rest of Hela cells were added with sterile IFNγ (Cat #285-IF, R & D systems) with a final concentration of 100 ng/mL.
Hela cells with and without IFNγ were dispensed to the respective wells of 384-well assay plates containing the compounds. The plates were incubated for about 48 hours at a 37° C., 5% CO2 incubator. Afterwards, 12 μL of 0.5 M methyl isonipecotate in dimethyl sulfoxide were added into each well and the plates were sealed and incubated at 37° C. without CO2 overnight. The plates were centrifuged for 1 min at 200×g. The resulting fluorescence was measured in a Spectramax plate reader (Molecular Devices) with a 400 nm excitation filter and a 510 nm emission filter.
The fluorescence intensity of each well was corrected for the background observed in wells with non-IFNγ-treated cells and was expressed as a fraction of the intensity observed in wells of IFNγ-treated cells and DMSO only. Potencies were calculated by linear least squares fit to the four parameter logistic IC50 equation.

In the case of `O=C(CO)N1CC(COc2nonc2/C(=N/O)N[C@H]2Cc3ccc(F)cc32)C1` [Example 59, N-[(7S)-4-fluorobicyclo[4.2.0]octa-1,3,5-trien-7-yl]-N′-hydroxy-4-{[1-(hydroxyacetyl)azetidin-3-yl]methoxy}-1,2,5-oxadiazole-3-carboximidamide], the IC50 (commonly the concentration that inhibits the measured activity by half) came to 0.364 µM on HIS-tagged IDO1 protein and 0.298 µM in test [1].

Regarding `CC(=O)NC[C@H](C)Oc1nonc1/C(=N/O)N[C@H]1Cc2ccc(F)cc21` [Example 40, N-{(2S)-2-[(4-{N-[(7S)-4-fluorobicyclo[4.2.0]octa-1,3,5-trien-7-yl]-N′-hydroxycarbamimidoyl}-1,2,5-oxadiazol-3-yl)oxy]propyl}acetamide], the IC50 at HIS-tagged IDO1 protein was 2.38 µM; in test [1], 1.03 µM.

As to `C[C@H](O)CNC(=O)COc1nonc1/C(=N/O)N[C@H]1Cc2ccc(F)cc21` [Example 9, 2-[(4-{N-[(7S)-4-fluorobicyclo[4.2.0]octa-1,3,5-trien-7-yl]-N′-hydroxycarbamimidoyl}-1,2,5-oxadiazol-3-yl)oxy]-N-[(2S)-2-hydroxypropyl]acetamide], the IC50 on HIS-tagged IDO1 protein was 0.413 µM; in test [1], 0.624 µM.

As to `NS(=O)(=O)CCCOc1nonc1/C(=N/O)N[C@H]1Cc2ccc(F)cc21` [Example 29, N-[(7S)-4-fluorobicyclo[4.2.0]octa-1,3,5-trien-7-yl]-N′-hydroxy-4-(3-sulfamoylpropoxy)-1,2,5-oxadiazole-3-carboximidamide], the concentration for half-maximal inhibition (IC50) was 0.0731 µM at HIS-tagged IDO1 protein and 0.147 µM in test [1].

For `CC(Oc1nonc1/C(=N/O)NC1Cc2ccc(F)cc21)C(=O)NCCO` (centres unmarked) [Example 23, 2-({4-[N-(4-fluorobicyclo[4.2.0]octa-1,3,5-trien-7-yl)-N′-hydroxycarbamimidoyl]-1,2,5-oxadiazol-3-yl}oxy)-N-(2-hydroxyethyl)propanamide], the 50% inhibitory concentration (IC50) at HIS-tagged IDO1 protein turned out to be 1.67 µM; in test [1] it was 1.93 µM.

`C[C@@H](CNC(=O)CO)Oc1nonc1/C(=N/O)N[C@H]1Cc2ccc(F)cc21` [Example 46, N-{(2S)-2-[(4-{N-[(7S)-4-fluorobicyclo[4.2.0]octa-1,3,5-trien-7-yl]-N′-hydroxycarbamimidoyl}-1,2,5-oxadiazol-3-yl)oxy]propyl}-2-hydroxyacetamide]: the IC50 at HIS-tagged IDO1 protein worked out at 2.45 µM; in test [1], 1.64 µM.

For the compound `NS(=O)(=O)N1CC(Oc2nonc2/C(=N/O)N[C@H]2Cc3ccc(F)cc32)C1` [Example 62, (S,Z)-N-(4-fluorobicyclo[4.2.0]octa-1(6),2,4-trien-7-yl)-N′-hydroxy-4-((1-sulfamoylazetidin-3-yl)oxy)-1,2,5-oxadiazole-3-carboximidamide], the figures for the concentration for half-maximal inhibition (IC50) (on HIS-tagged IDO1 protein; in test [1]) were 0.024 µM and 0.044 µM, respectively.

Take `O=C(CO)N1CC[C@H](Oc2nonc2/C(=N/O)N[C@H]2Cc3ccc(F)cc32)C1` [Example 25, N-[(7S)-4-fluorobicyclo[4.2.0]octa-1,3,5-trien-7-yl]-N′-hydroxy-4-{[(3S)-1-(hydroxyacetyl)pyrrolidin-3-yl]oxy}-1,2,5-oxadiazole-3-carboximidamide]: the results for the concentration for half-maximal inhibition (IC50) (on HIS-tagged IDO1 protein; in test [1]) were 1.21 µM and 2 µM, respectively.

As to `NS(=O)(=O)N1CC[C@H](Oc2nonc2/C(=N/O)N[C@H]2Cc3ccc(F)cc32)C1` [Example 32, N-[(7S)-4-fluorobicyclo[4.2.0]octa-1,3,5-trien-7-yl]-N′-hydroxy-4-{[(3S)-1-sulfamoylpyrrolidin-3-yl]oxy}-1,2,5-oxadiazole-3-carboximidamide], the IC50 at HIS-tagged IDO1 protein was found to be 0.308 µM; in test [1], 0.34 µM.

`NS(=O)(=O)NCCOc1nonc1/C(=N/O)N[C@H]1CCc2ccc(F)cc21` [Example 24, N-[(1S)-6-fluoro-2,3-dihydro-1H-inden-1-yl]-N′-hydroxy-4-[2-(sulfamoylamino)ethoxy]-1,2,5-oxadiazole-3-carboximidamide]: the half-maximal inhibitory concentration (IC50) on HIS-tagged IDO1 protein worked out at 0.421 µM; in test [1] it was 1.3 µM.
